Key:
[1] = compound: COc1ccc2c(c1)[C@]1(C[C@H]1c1ccc3c(/C=C/c4ccc(CN5C[C@@H](C)O[C@@H](C)C5)cc4)n[nH]c3c1)C(=O)N2
BVD523 = compound: CC(C)Nc1cc(-c2c[nH]c(C(=O)N[C@H](CO)c3cccc(Cl)c3)c2)c(Cl)cn1 [BVD523]
[2] = compound: CCCCOc1c(C(=O)c2c(F)cc(C)cc2F)c[nH]c2nncc1-2
Rucaparib = compound: CNCc1ccc(-c2[nH]c3cc(F)cc4c3c2CCNC4=O)cc1 [Rucaparib]
THZ1 [3] = compound: T1, CN(C)C/C=C/C(=O)Nc1ccc(C(=O)Nc2cccc(Nc3ncc(Cl)c(-c4c[nH]c5ccccc45)n3)c2)cc1 [THZ1]
THZ531 [4] = compound: T2, CN(C)C/C=C/C(=O)Nc1ccc(C(=O)N2CCC[C@@H](Nc3ncc(Cl)c(-c4c[nH]c5ccccc45)n3)C2)cc1 [THZ531]
AZD1775 = compound: C=CCn1c(=O)c2cnc(Nc3ccc(N4CCN(C)CC4)cc3)nc2n1-c1cccc(C(C)(C)O)n1 [AZD1775]
[5] = compound: CO[C@@H](C)Cn1c(=O)n(C)c2cnc3ccc(-c4cncc(C(C)(C)O)c4)cc3c21
THZ1 [6] = compound: T1, THZ1; experiment: increase in dead-cell fraction, 72 h; higher = more death;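 note: breast cancer cell lines in 384-well plates, stained with Hoechst plus LIVE/DEAD far red dye and imaged, cells above an LDR intensity threshold counted dead, Hoechst-negative corpses included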
THZ531 [7] = compound: T2, THZ531; experiment: as above
LEE011/Ribociclib = compound: CN(C)C(=O)c1cc2cnc(Nc3ccc(N4CCNCC4)cn3)nc2n1C1CCCC1 [LEE011/Ribociclib]; experiment: as above
BSJ-03-123 = compound: CC(=O)c1c(C)c2cnc(Nc3ccc(N4CCN(CCOCCOCCOCCNC(=O)COc5cccc6c5C(=O)N(C5CCC(=O)NC5=O)C6=O)CC4)cn3)nc2n(C2CCCC2)c1=O [BSJ-03-123]; experiment: as above
YKL-5-124 = compound: C=CC(=O)Nc1ccc(C(=O)Nc2[nH]nc3c2CN(C(=O)N[C@H](CN(C)C)c2ccccc2)C3(C)C)cc1 [YKL-5-124]; experiment: as above
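Throughout, for GR50, 72 h: breast cancer and non-malignant breast epithelial cell lines, Deep Dye Drop or Dye Drop imaging, nine half-log doses, GR normalized to time-zero plates and DMSO-only controls.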

In the case of MCF10A (GM), the “GR50, 72 h” value [1] was 0.00625 µM, the “GR50, 72 h” value (BVD523) was 1.51 µM and the “GR50, 72 h” value [2] was 0.355 µM. The “GR50, 72 h” value (Rucaparib) was greater than 10 µM, the “GR50, 72 h” value (THZ1 [3]) was 0.0449 µM and the “GR50, 72 h” value (THZ531 [4]) was 0.428 µM. For the same cell line, the “GR50, 72 h” value (AZD1775) was 5.15 µM, the “GR50, 72 h” value [5] was 0.00578 µM and the “increase in dead-cell fraction” value (THZ1 [6]; 0.0001 µM) was -0.0002. For the same cell line, the “increase in dead-cell fraction” value (THZ1 [6]; 0.0003162 µM) was -0.0005, the “increase in dead-cell fraction” value (THZ1 [6]; 0.001 µM) was -0.0015 and the “increase in dead-cell fraction” value (THZ1 [6]; 0.003162 µM) was 0.0003. For the same cell line, the “increase in dead-cell fraction” value (THZ1 [6]; 0.01 µM) was 0.0067, the “increase in dead-cell fraction” value (THZ1 [6]; 0.03162 µM) was 0.127 and the “increase in dead-cell fraction” value (THZ1 [6]; 0.1 µM) was 0.225. For the same cell line, the “increase in dead-cell fraction” value (THZ1 [6]; 0.3162 µM) was 0.256, the “increase in dead-cell fraction” value (THZ1 [6]; 1 µM) was 0.61 and the “increase in dead-cell fraction” value (THZ531 [7]; 0.0001 µM) was 0.0026. For the same cell line, the “increase in dead-cell fraction” value (THZ531 [7]; 0.0003162 µM) was 0.0015, the “increase in dead-cell fraction” value (THZ531 [7]; 0.001 µM) was -0.0008 and the “increase in dead-cell fraction” value (THZ531 [7]; 0.003162 µM) was -0.0019. The “increase in dead-cell fraction” value (THZ531 [7]; 0.01 µM) was 0.0006, the “increase in dead-cell fraction” value (THZ531 [7]; 0.03162 µM) was 0.0017 and the “increase in dead-cell fraction” value (THZ531 [7]; 0.1 µM) was 0.0028. The “increase in dead-cell fraction” value (THZ531 [7]; 0.3162 µM) was 0.0137, the “increase in dead-cell fraction” value (THZ531 [7]; 1 µM) was 0.62 and the “increase in dead-cell fraction” value (LEE011/Ribociclib; 0.001 µM) was 0.0013. The “increase in dead-cell fraction” value (LEE011/Ribociclib; 0.003162 µM) was 0.0004, the “increase in dead-cell fraction” value (LEE011/Ribociclib; 0.01 µM) was 0.002 and the “increase in dead-cell fraction” value (LEE011/Ribociclib; 0.03162 µM) was 0.0019. The “increase in dead-cell fraction” value (LEE011/Ribociclib; 0.1 µM) was 0.0026, the “increase in dead-cell fraction” value (LEE011/Ribociclib; 0.3162 µM) was 0.0035 and the “increase in dead-cell fraction” value (LEE011/Ribociclib; 1 µM) was 0.0035. The “increase in dead-cell fraction” value (LEE011/Ribociclib; 3.162 µM) was 0.0073, the “increase in dead-cell fraction” value (LEE011/Ribociclib; 10 µM) was 0.0229 and the “increase in dead-cell fraction” value (BSJ-03-123; 0.001 µM) was 0.0019. The “increase in dead-cell fraction” value (BSJ-03-123; 0.003162 µM) was -0.0004, the “increase in dead-cell fraction” value (BSJ-03-123; 0.01 µM) was 0.0026 and the “increase in dead-cell fraction” value (BSJ-03-123; 0.03162 µM) was 0.0037. The “increase in dead-cell fraction” value (BSJ-03-123; 0.1 µM) was 0.0042, the “increase in dead-cell fraction” value (BSJ-03-123; 0.3162 µM) was 0.0033 and the “increase in dead-cell fraction” value (BSJ-03-123; 1 µM) was 0.0209. The “increase in dead-cell fraction” value (BSJ-03-123; 3.162 µM) was 0.0255, the “increase in dead-cell fraction” value (BSJ-03-123; 10 µM) was 0.455 and the “increase in dead-cell fraction” value (YKL-5-124; 0.001 µM) was 0.22. The “increase in dead-cell fraction” value (YKL-5-124; 0.003162 µM) was 0.329, the “increase in dead-cell fraction” value (YKL-5-124; 0.01 µM) was 0.363 and the “increase in dead-cell fraction” value (YKL-5-124; 0.03162 µM) was 0.249. For the same cell line, the “increase in dead-cell fraction” value (YKL-5-124; 0.1 µM) was 0.226, the “increase in dead-cell fraction” value (YKL-5-124; 0.3162 µM) was 0.293 and the “increase in dead-cell fraction” value (YKL-5-124; 1 µM) was 0.263. For the same cell line, the “increase in dead-cell fraction” value (YKL-5-124; 3.162 µM) was 0.218 and the “increase in dead-cell fraction” value (YKL-5-124; 10 µM) was 0.391.
In the case of PDX1206, the “GR50, 72 h” value [1] was 0.00708 µM, the “GR50, 72 h” value (BVD523) was greater than 10 µM and the “GR50, 72 h” value [2] was 0.00176 µM. The “GR50, 72 h” value (Rucaparib) was greater than 10 µM, the “GR50, 72 h” value (THZ1 [3]) was 0.0255 µM and the “GR50, 72 h” value (THZ531 [4]) was 0.0456 µM. For the same cell line, the “GR50, 72 h” value (AZD1775) was 0.313 µM, the “GR50, 72 h” value [5] was 0.00134 µM and the “increase in dead-cell fraction” value (THZ1 [6]; 0.0001 µM) was -0.0189. The “increase in dead-cell fraction” value (THZ1 [6]; 0.0003162 µM) was 0.0062, the “increase in dead-cell fraction” value (THZ1 [6]; 0.001 µM) was -0.0104 and the “increase in dead-cell fraction” value (THZ1 [6]; 0.003162 µM) was -0.008. For the same cell line, the “increase in dead-cell fraction” value (THZ1 [6]; 0.01 µM) was -0.0089, the “increase in dead-cell fraction” value (THZ1 [6]; 0.03162 µM) was 0.0587 and the “increase in dead-cell fraction” value (THZ1 [6]; 0.1 µM) was 0.346. The “increase in dead-cell fraction” value (THZ1 [6]; 0.3162 µM) was 0.424, the “increase in dead-cell fraction” value (THZ1 [6]; 1 µM) was 0.513 and the “increase in dead-cell fraction” value (THZ531 [7]; 0.0001 µM) was -0.0011. For the same cell line, the “increase in dead-cell fraction” value (THZ531 [7]; 0.0003162 µM) was 0.0053, the “increase in dead-cell fraction” value (THZ531 [7]; 0.001 µM) was -0.0065 and the “increase in dead-cell fraction” value (THZ531 [7]; 0.003162 µM) was -0.0032. For the same cell line, the “increase in dead-cell fraction” value (THZ531 [7]; 0.01 µM) was -0.0015, the “increase in dead-cell fraction” value (THZ531 [7]; 0.03162 µM) was -0.0072 and the “increase in dead-cell fraction” value (THZ531 [7]; 0.1 µM) was 0.347. The “increase in dead-cell fraction” value (THZ531 [7]; 0.3162 µM) was 0.257, the “increase in dead-cell fraction” value (THZ531 [7]; 1 µM) was 0.344 and the “increase in dead-cell fraction” value (LEE011/Ribociclib; 0.001 µM) was -0.0167. The “increase in dead-cell fraction” value (LEE011/Ribociclib; 0.003162 µM) was -0.0241, the “increase in dead-cell fraction” value (LEE011/Ribociclib; 0.01 µM) was 0.009 and the “increase in dead-cell fraction” value (LEE011/Ribociclib; 0.03162 µM) was -0.0043. For the same cell line, the “increase in dead-cell fraction” value (LEE011/Ribociclib; 0.1 µM) was -0.0009, the “increase in dead-cell fraction” value (LEE011/Ribociclib; 0.3162 µM) was 0.0111 and the “increase in dead-cell fraction” value (LEE011/Ribociclib; 1 µM) was -0.0007. The “increase in dead-cell fraction” value (LEE011/Ribociclib; 3.162 µM) was 0.0201, the “increase in dead-cell fraction” value (LEE011/Ribociclib; 10 µM) was 0.0115 and the “increase in dead-cell fraction” value (BSJ-03-123; 0.001 µM) was -0.0047. The “increase in dead-cell fraction” value (BSJ-03-123; 0.003162 µM) was -0.004, the “increase in dead-cell fraction” value (BSJ-03-123; 0.01 µM) was -0.0083 and the “increase in dead-cell fraction” value (BSJ-03-123; 0.03162 µM) was -0.0021. The “increase in dead-cell fraction” value (BSJ-03-123; 0.1 µM) was -0.0156, the “increase in dead-cell fraction” value (BSJ-03-123; 0.3162 µM) was -0.0027 and the “increase in dead-cell fraction” value (BSJ-03-123; 1 µM) was -0.0025. For the same cell line, the “increase in dead-cell fraction” value (BSJ-03-123; 3.162 µM) was -0.0175, the “increase in dead-cell fraction” value (BSJ-03-123; 10 µM) was 0.217 and the “increase in dead-cell fraction” value (YKL-5-124; 0.001 µM) was -0.009. For the same cell line, the “increase in dead-cell fraction” value (YKL-5-124; 0.003162 µM) was -0.0048, the “increase in dead-cell fraction” value (YKL-5-124; 0.01 µM) was 0.0238 and the “increase in dead-cell fraction” value (YKL-5-124; 0.03162 µM) was 0.0116. For the same cell line, the “increase in dead-cell fraction” value (YKL-5-124; 0.1 µM) was 0.0307, the “increase in dead-cell fraction” value (YKL-5-124; 0.3162 µM) was 0.0443 and the “increase in dead-cell fraction” value (YKL-5-124; 1 µM) was 0.0358. The “increase in dead-cell fraction” value (YKL-5-124; 3.162 µM) was 0.0858 and the “increase in dead-cell fraction” value (YKL-5-124; 10 µM) was 0.484.
